Assay results: US20250228239A1, “MOLECULES HAVING PESTICIDAL UTILITY, AND INTERMEDIATES, COMPOSITIONS, AND PROCESSES, RELATED THERETO” (priority 2024, published 2025)

Tests used:
Format in all cases: in vivo
[1] = tested on: Beet Armyworm (Spodoptera exigua, LAPHEG); test: Bioassays on Beet Armyworm (BAW), 128-well diet tray assay; details: Spodoptera exigua; Beet Armyworm, Table ABC / ABC-DP rating; read-out: BAW rating
In short: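 Second-instar larvae, one to five per well, were placed on artificial diet surface-treated with 50 μg/cm^2 compound in 90:10 acetone-water, eight wells per treatment. Trays were held 5–7 days at 25 °C, 14:10 light-dark. Percent mortality per well was averaged over eight wells.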

[2] = tested on: Cabbage Looper (Trichoplusia ni, TRIPNI); test: Bioassays on Cabbage Looper (CL), 128-well diet tray assay; details: Trichoplusia ni; Cabbage Looper, Table ABC / ABC-DP rating; read-out: CL rating
In short: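 Second-instar larvae (1–5 per well) placed on artificial diet surface-treated with 50 μg/cm^2 test molecule applied in 90:10 acetone-water and dried. Held at 25° C., 14:10 light-dark, for five to seven days. Percent mortality scored per well and averaged over eight wells.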

[3] = tested on: Yellow Fever Mosquito (Aedes aegypti, AEDSAE); details: Yellow Fever Mosquito, Table ABC / ABC-DP rating
In short: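 Compounds from 4000 ppm DMSO stocks were diluted in 90:10 water/acetone and dispensed into wells, then infested with about 1-day-old larvae in liver-powder water. Covered plates were held at room temperature for 3 days and each well was scored for mortality against a rating scale; six replicate plates per compound.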

SMILES	pest or weed control at 50 µg/cm2 [1]	pest or weed control at 50 µg/cm2 [2]	YFM rating [3]
O=C(CCC(F)(C(F)(F)F)C(F)(F)F)Nc1c(F)ccc(NC(=O)c2cc(NC(=O)[C@H]3[C@H](c4ccc(F)c(C(F)(F)F)c4)C3(Cl)Cl)ccc2Cl)c1F [F1829, 2-Chloro-5-((1R,3R)-2,2-dichloro-3-(4-fluoro-3-(trifluoromethyl)phenyl)cyclopropane-1-carboxamido)-N-(2,4-difluoro-3-(4,5,5,5-tetrafluoro-4-(trifluoromethyl)pentanamido)phenyl)benzamide]	50 to 100%	50 to 100%	A (80–100)
O=C(CCCC(F)(F)F)Nc1c(F)ccc(NC(=O)c2cc(NC(=O)[C@H]3[C@H](c4ccc(F)c(C(F)(F)F)c4)C3(Cl)Cl)ccc2Cl)c1F [F1830, 2-Chloro-5-((1R,3R)-2,2-dichloro-3-(4-fluoro-3-(trifluoromethyl)phenyl)cyclopropane-1-carboxamido)-N-(2,4-difluoro-3-(5,5,5-trifluoropentanamido)phenyl)benzamide]	50 to 100%	50 to 100%	A (80–100)
O=C(Nc1ccc(F)c(NC(=O)C(Br)CC(F)(F)F)c1F)c1cc(NC(=O)[C@H]2[C@H](c3ccc(F)c(C(F)(F)F)c3)C2(Cl)Cl)ccc1Cl (stereo partly drawn) [F1831, N-(3-(2-Bromo-4,4,4-trifluorobutanamido)-2,4-difluorophenyl)-2-chloro-5-((1R,3R)-2,2-dichloro-3-(4-fluoro-3-(trifluoromethyl)phenyl)cyclopropane-1-carboxamido)benzamide]	50 to 100%	50 to 100%	A (80–100)
O=C(CC1(C(F)(F)F)CC1)Nc1c(F)ccc(NC(=O)c2cc(NC(=O)[C@H]3[C@H](c4ccc(F)c(C(F)(F)F)c4)C3(Cl)Cl)ccc2Cl)c1F [F1836, 2-Chloro-5-((1R,3R)-2,2-dichloro-3-(4-fluoro-3-(trifluoromethyl)phenyl)cyclopropane-1-carboxamido)-N-(2,4-difluoro-3-(2-(1-(trifluoromethyl)cyclopropyl)acetamido)phenyl)benzamide]	50 to 100%	50 to 100%	A (80–100)
CCCN(C(=O)CC#N)c1c(F)ccc(NC(=O)c2cc(NC(=O)[C@H]3[C@H](c4ccc(F)c(C(F)(F)F)c4)C3(Cl)Cl)ccc2Cl)c1F [F1841, 2-Chloro-N-(3-(2-cyano-N-propylacetamido)-2,4-difluorophenyl)-5-((1R,3R)-2,2-dichloro-3-(4-fluoro-3-(trifluoromethyl)phenyl)cyclopropane-1-carboxamido)benzamide]	50 to 100%	50 to 100%	A (80–100)
CCCN(C(=O)C(C)OCC)c1c(F)ccc(NC(=O)c2cc(NC(=O)[C@H]3[C@H](c4ccc(F)c(C(F)(F)F)c4)C3(Cl)Cl)ccc2Cl)c1F (stereo partly drawn) [F1842, 2-Chloro-5-((1R,3R)-2,2-dichloro-3-(4-fluoro-3-(trifluoromethyl)phenyl)cyclopropane-1-carboxamido)-N-(3-(2-ethoxy-N-propylpropanamido)-2,4-difluorophenyl)benzamide]	50 to 100%	50 to 100%	A (80–100)
CC(F)(F)CCC(=O)Nc1c(F)ccc(NC(=O)c2cc(NC(=O)[C@H]3[C@H](c4ccc(F)c(C(F)(F)F)c4)C3(Cl)Cl)ccc2Cl)c1F [F1843, 2-Chloro-5-((1R,3R)-2,2-dichloro-3-(4-fluoro-3-(trifluoromethyl)phenyl)cyclopropane-1-carboxamido)-N-(3-(4,4-difluoropentanamido)-2,4-difluorophenyl)benzamide]	50 to 100%	50 to 100%	A (80–100)
O=C(CCC(F)(F)C(F)(F)F)Nc1c(F)ccc(NC(=O)c2cc(NC(=O)[C@H]3[C@H](c4ccc(F)c(C(F)(F)F)c4)C3(Cl)Cl)ccc2Cl)c1F [F1844, 2-Chloro-5-((1R,3R)-2,2-dichloro-3-(4-fluoro-3-(trifluoromethyl)phenyl)cyclopropane-1-carboxamido)-N-(2,4-difluoro-3-(4,4,5,5,5-pentafluoropentanamido)phenyl)benzamide]	50 to 100%	50 to 100%	A (80–100)
O=C(CCC(F)(F)F)Nc1c(F)ccc(NC(=O)c2cc(NC(=O)[C@H]3[C@H](c4ccc(Cl)c(Cl)c4)C3(Cl)Cl)ccc2Cl)c1F [F1847, 2-Chloro-5-((1R,3R)-2,2-dichloro-3-(3,4-dichlorophenyl)cyclopropane-1-carboxamido)-N-(2,4-difluoro-3-(4,4,4-trifluorobutanamido)phenyl)benzamide]	50 to 100%	50 to 100%	A (80–100)
O=C(CCC(F)(F)F)Nc1c(F)ccc(NC(=O)c2cc(NC(=O)[C@H]3[C@H](c4ccc(F)c(Cl)c4)C3(Cl)Cl)ccc2Cl)c1F [F1848, 2-Chloro-5-((1R,3R)-2,2-dichloro-3-(3-chloro-4-fluorophenyl)cyclopropane-1-carboxamido)-N-(2,4-difluoro-3-(4,4,4-trifluorobutanamido)phenyl)benzamide]	50 to 100%	50 to 100%	A (80–100)
CC(Br)CC(=O)Nc1c(F)ccc(NC(=O)c2cc(NC(=O)[C@H]3[C@H](c4ccc(F)c(C(F)(F)F)c4)C3(Cl)Cl)ccc2Cl)c1F (stereo partly drawn) [F1853, N-(3-(3-Bromobutanamido)-2,4-difluorophenyl)-2-chloro-5-((1R,3R)-2,2-dichloro-3-(4-fluoro-3-(trifluoromethyl)phenyl)cyclopropane-1-carboxamido)benzamide]	50 to 100%	50 to 100%	A (80–100)
O=C(CCC1CC1)Nc1c(F)ccc(NC(=O)c2cc(NC(=O)[C@H]3[C@H](c4ccc(F)c(C(F)(F)F)c4)C3(Cl)Cl)ccc2Cl)c1F [F1854, 2-Chloro-N-(3-(3-cyclopropylpropanamido)-2,4-difluorophenyl)-5-((1R,3R)-2,2-dichloro-3-(4-fluoro-3-(trifluoromethyl)phenyl)cyclopropane-1-carboxamido)benzamide]	50 to 100%	50 to 100%	A (80–100)
CC(C)(C)CCCC(=O)Nc1c(F)ccc(NC(=O)c2cc(NC(=O)[C@H]3[C@H](c4ccc(F)c(C(F)(F)F)c4)C3(Cl)Cl)ccc2Cl)c1F [F1856, 2-Chloro-5-((1R,3R)-2,2-dichloro-3-(4-fluoro-3-(trifluoromethyl)phenyl)cyclopropane-1-carboxamido)-N-(3-(5,5-dimethylhexanamido)-2,4-difluorophenyl)benzamide]	50 to 100%	50 to 100%	B (More than 0 – Less than 80)
C#CCCCC(=O)Nc1c(F)ccc(NC(=O)c2cc(NC(=O)[C@H]3[C@H](c4ccc(F)c(C(F)(F)F)c4)C3(Cl)Cl)ccc2Cl)c1F [F1857]	50 to 100%	50 to 100%	A (80–100)
O=C(CCC(F)(OC(F)(F)F)C(F)(F)F)Nc1c(F)ccc(NC(=O)c2cc(NC(=O)[C@H]3[C@H](c4ccc(F)c(C(F)(F)F)c4)C3(Cl)Cl)ccc2Cl)c1F (stereo partly drawn) [F1858, 2-Chloro-5-((1R,3R)-2,2-dichloro-3-(4-fluoro-3-(trifluoromethyl)phenyl)cyclopropane-1-carboxamido)-N-(2,4-difluoro-3-(4,5,5,5-tetrafluoro-4-(trifluoromethoxy)pentanamido)phenyl)benzamide]	50 to 100%	50 to 100%	A (80–100)
CC(CC(F)(F)F)C(=O)Nc1c(F)ccc(NC(=O)c2cc(NC(=O)[C@H]3[C@H](c4ccc(F)c(Cl)c4)C3(Cl)Cl)ccc2Cl)c1F (stereo partly drawn) [F1866, 2-Chloro-5-((1R,3R)-2,2-dichloro-3-(3-chloro-4-fluorophenyl)cyclopropane-1-carboxamido)-N-(2,4-difluoro-3-(4,4,4-trifluoro-2-methylbutanamido)phenyl) benzamide]	50 to 100%	50 to 100%	A (80–100)
C/C=C/C(=O)Nc1c(F)ccc(NC(=O)c2cc(NC(=O)[C@H]3[C@H](c4ccc(F)c(C(F)(F)F)c4)C3(Cl)Cl)ccc2Cl)c1F [F1868, N-(3-((E)-But-2-enamido)-2,4-difluorophenyl)-2-chloro-5-((1R,3R)-2,2-dichloro-3-(4-fluoro-3-(trifluoromethyl)phenyl)cyclopropane-1-carboxamido)benzamide]	50 to 100%	50 to 100%	A (80–100)
O=C(/C=C/C(F)(F)F)Nc1c(F)ccc(NC(=O)c2cc(NC(=O)[C@H]3[C@H](c4ccc(F)c(C(F)(F)F)c4)C3(Cl)Cl)ccc2Cl)c1F [F1869, 2-Chloro-5-((1R,3R)-2,2-dichloro-3-(4-fluoro-3-(trifluoromethyl)phenyl)cyclopropane-1-carboxamido)-N-(2,4-difluoro-3-((E)-4,4,4-trifluorobut-2-enamido)phenyl)benzamide]	50 to 100%	50 to 100%	A (80–100)
